Inconclusive results are not listed. The source made the active and inactive calls. How the calls were made is not given here.

In the data set the test system is S. typhimurium/E. coli reverse mutation, colony counts. As to the kind of experiment: Bacterial reverse mutation test (aka Ames test) summary data.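 Further: His-minus Salmonella and trp-minus E. coli WP2 uvrA pKM101 with or without liver S9.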 The text has this:
The Ames test uses bacteria cultures to determine whether a substance causes mutations. Because there is a significant overlap between substances that are mutagens and those that are carcinogens, a quick and inexpensive mutagenicity test is useful as an initial screening for possible carcinogens.
The Ames test relies on specific strains of S. typhimurium, namely: TA97, TA98, TA100, TA102, TA104, TA1535, TA1537, and TA1538. In addition to the S. typhimurium strains, the test may also use the E. coli strain WP2 uvrA pKM101.
Each of the bacterial strains has a mutation that prevents it from making an amino acid (a protein building block) required for normal cell growth. The S. typhimurium strains are unable to manufacture histidine; the E. coli strain cannot manufacture tryptophan. The tester strains will not be able to grow without amino acid supplementation, unless the mutated gene is changed back to the correct DNA sequence (reversion mutation). Being exposed to a mutagenic chemical increases the chance that the mutant gene will be restored to the correct sequence, which allows the bacteria to grow and form colonies. Each substance under study is tested in a variety of bacterial strains with different types of altered DNA sequences in order to provide a comprehensive assessment of the mutagenic potential of the substance.
Some non-mutagenic substances are converted to mutagenic substances when metabolized by the liver; in contrast, some substances that are mutagenic in their natural state are converted to non-mutagens by the liver. All substances are tested in their natural state, as well as in the presence of liver enzymes that can produce this metabolic conversion of the test substance. Extracts of rat, hamster, or mouse liver enzymes (S9 mix) are used for this purpose.
D. Preparing the Cultures
Multiple sets of cultures are prepared using a range of doses and different amounts of liver enzymes for each bacterial strain. Each culture is prepared in a test tube containing a suspension of one bacterial strain and either an S9 mix or plain buffer solution. Then the test substance is added. Negative control cultures are established using the same ingredients, but without the test substance. Positive control cultures are established using known mutagens active in particular bacterial strains and metabolic conditions (for example, with or without S9). Once prepared, each culture is incubated for 20 minutes at 37° C. Agar is then added to the cultures, and the contents of each tube are poured onto the surface of a Petri dish that was prepared with standard bacterial culture medium. The plates are then incubated, usually for two days.
Depending on the substance to be tested, the exposure and incubation processes may be modified. These variations include:
- Elimination of the 20-minute incubation period in a test tube prior to plating (this method is referred to as the standard plate incorporation method)
- Enzymatic reduction of azo and diazo substances (this process occurs in the intestine or liver of animals) using a chemical called flavin mononucleotide (FMN) or intestinal bacterial preparations from rats
- Testing in sealed chambers such as desiccators for volatile and gaseous chemicals.
To validate the test, a trained investigator compares the number of colonies on the chemical-treated plates to the number of colonies on the negative control plates. If the substance under test is mutagenic, the chemical-treated plates will have a much greater number of colonies than the negative control plates.
- A positive response is a reproducible, dose-related increase in mutant colonies in any single strain, with or without the addition of S9 metabolic enzymes. While there is no minimum percentage of increase required for a result to be considered positive, a twofold increase in mutant colonies in a treated plate is usually considered to be a positive (mutagenic) response.
[…]
Consider `c1ccc2c(c1)ccc1ccccc12`, for which the outcome was “active; weakly positive”.

With `CC(=O)c1nccs1`, the outcome was “inactive; negative”.

As to `Clc1ccccc1Cl`, the outcome was “inactive; negative”.

For the compound `N#CCCO`, the outcome was “inactive; negative”.

On to `O=C1c2c(O)ccc(Nc3ccc(CCO)cc3)c2C(=O)c2c([N+](=O)[O-])ccc(O)c21`, for which the outcome is “active; positive”.

Regarding `CC(N)C(=O)O` (stereo unspecified), the outcome was “inactive; negative”.

With `CCC[CH2][Sn]([Cl])([Cl])[Cl]`, the outcome was “inactive; negative”.

In the case of `C=C(C)C(=O)OCCCCCCCCCC`, the outcome was “inactive; negative”.

Take `CCCC(=O)OCC`: the outcome is “inactive; negative”.

For `O=[N+]([O-])c1ccc(NCCO)c(OCCO)c1`, the outcome was “active; positive”.

Regarding `CCC(C)C(C)CO` (stereo unspecified), the outcome is “inactive; negative”.

As for `C=C(C)OC(C)=O`, the outcome is “inactive; negative”.

Take `O=P1(N(CCCl)CCCl)NCCCO1` (stereo unspecified): the outcome was “active; positive”.

With `CCCCOCCO`, the outcome is “inactive; negative”.

Regarding `N#C/C(N)=C(/N)C#N`, the outcome was “inactive; negative”.

For `CCC(Cl)[N+](=O)[O-]` (stereo unspecified), the outcome is “active; positive”.

As for `CCCc1cc(=O)[nH]c(=S)[nH]1`, the outcome was “inactive; negative”.

On to `N#CC(O)c1ccccc1` (stereo unspecified), for which the outcome is “inactive; negative”.

Take `O=C(Nc1ccccc1SSc1ccccc1NC(=O)c1ccccc1)c1ccccc1`: the outcome is “inactive; negative”.

As for `Fc1ccccc1`, the outcome was “active; positive”.

With `N#Cc1c(Cl)c(Cl)c(Cl)c(C#N)c1Cl`, the outcome is “inactive; negative”.

As to `BrCCBr`, the outcome was “active; positive”.

As for `C=C(C)CCl`, the outcome was “active; weakly positive”.

With `Cc1cccnc1`, the outcome was “inactive; negative”.

As for `Cc1c(C(=O)O)cccc1[N+](=O)[O-]`, the outcome is “active; positive”.

For `CN[C@@H]1[C@H](O[C@H]2[C@H](O[C@H]3[C@H](O)[C@@H](O)[C@H](NC(=N)N)[C@@H](O)[C@@H]3N=C(N)N)O[C@@H](C)[C@]2(O)C=O)O[C@@H](CO)[C@H](O)[C@H]1O`, the outcome was “active; weakly positive”.

On to `Nc1ccc2c(c1)C(=O)c1ccccc1C2=O`, for which the outcome was “active; positive”.

Turning to `O=CCCCC=O`, the outcome is “active; positive”.

`COC=O`: the outcome was “inactive; negative”.

As for `O=C1CCCCC1`, the outcome was “inactive; negative”.

For `Nc1ccc(O)c([N+](=O)[O-])c1`, the outcome is “active; positive”.

Turning to `CC(C)C(C)(C)C(C)(C)C(C)(C)S`, the outcome is “inactive; negative”.

As for `Nc1ccccc1[N+](=O)[O-]`, the outcome was “inactive; negative”.

In the case of `CC(C)(C)c1ccc(OCC2CO2)cc1` (stereo unspecified), the outcome was “active; positive”.

As to `CC(C)(C)N`, the outcome is “inactive; negative”.

For the compound `CCCCCCOC(=O)c1ccccc1C(=O)OCCCCCC`, the outcome was “inactive; negative”.

With `CCCCOc1ccc(C=Nc2ccc(CC)cc2)cc1`, the outcome was “active; weakly positive”.

For the compound `CCCCC(CC)CO` (stereo unspecified), the outcome was “inactive; negative”.

In the case of `NC(=O)c1cnccn1`, the outcome was “inactive; negative”.

As for `O=C1NC(=O)C(c2ccccc2)(c2ccccc2)N1`, the outcome is “inactive; negative”.

With `Clc1ccc(C(c2ccc(Cl)cc2)c2ccc(Cl)cc2)cc1`, the outcome is “inactive; negative”.

Regarding `Cc1cc(C)c(N=Nc2c(O)c(S(=O)(=O)O)cc3cc(S(=O)(=O)O)ccc23)cc1C`, the outcome is “inactive; negative”.

As for `C=CC(=O)OCCN(C)C`, the outcome was “inactive; negative”.

As to `CCC1CO1` (stereo unspecified), the outcome was “active; positive”.

For `C=CC(=O)OCC1CO1` (stereo unspecified), the outcome was “active; positive”.

Regarding `O=C(O)CCCc1ccc(N(CCCl)CCCl)cc1`, the outcome is “active; positive”.

For `COP(=O)(O)OC`, the outcome was “inactive; negative”.

Regarding `O=S(=O)(O)c1ccccc1`, the outcome was “inactive; negative”.

Regarding `NC=O`, the outcome was “inactive; negative”.

For the compound `CCC#N`, the outcome is “inactive; negative”.

As for `O=C(O)c1c(Cl)cccc1Cl`, the outcome is “inactive; negative”.

Consider `c1ccc(C2CO2)cc1` (stereo unspecified), for which the outcome is “active; positive”.

In the case of `Cc1c(Br)c(Br)c(Br)c(Br)c1Br`, the outcome was “inactive; negative”.

Take `CNc1ccc(N(CCO)CCO)cc1[N+](=O)[O-]`: the outcome was “active; positive”.

Regarding `Cc1ccc(C#N)cc1`, the outcome was “inactive; negative”.

With `c1ccc(COCc2ccccc2)cc1`, the outcome was “inactive; negative”.

Regarding `CC(C)CC(C)N` (stereo unspecified), the outcome is “inactive; negative”.

For the compound `O=C(O)C(F)(F)C(F)(F)C(F)(F)C(F)(F)C(F)(F)C(F)(F)C(F)(F)C(F)(F)C(F)(F)C(F)(F)C(F)(F)F`, the outcome is “inactive; negative”.

On to `O=C1C(c2[nH]c3ccccc3c2O)=Nc2ccccc21`, for which the outcome was “active; positive”.

`Nc1c(S(=O)(=O)O)cc(Nc2cccc(S(=O)(=O)CCOS(=O)(=O)O)c2)c2c1C(=O)c1ccccc1C2=O`: the outcome was “active; positive”.

With `Cc1ccc(S(N)(=O)=O)cc1`, the outcome is “inactive; negative”.

Consider `CCN(CC)c1ccc(N)cc1`, for which the outcome was “active; positive”.

As for `CCc1cccc(C)c1N(C(=O)CCl)C(C)COC` (stereo unspecified), the outcome was “inactive; negative”.

`CCc1cccc(C)c1N`: the outcome was “inactive; negative”.

On to `CCOP(=O)(OCC)OCC`, for which the outcome is “inactive; negative”.

With `Clc1cccc(Cl)c1Cl`, the outcome was “inactive; negative”.

Take `NC1(C(=O)O)CCCC1`: the outcome is “inactive; negative”.

Take `Nc1nc(N)c2nc(-c3ccccc3)c(N)nc2n1`: the outcome was “inactive; negative”.

`COc1cc(-c2ccc(N=C=O)c(OC)c2)ccc1N=C=O`: the outcome was “active; positive”.

For `COC(=O)C1CCC(C)CC1` (stereo unspecified), the outcome was “inactive; negative”.

In the case of `CC(=O)C(C)O` (stereo unspecified), the outcome is “inactive; negative”.

With `CC=CC=O`, the outcome was “active; positive”.

Consider `CCCCCCCCCCCC(=O)O`, for which the outcome was “inactive; negative”.

`Clc1cccc(C(Cl)(Cl)Cl)n1`: the outcome is “active; positive”.

Turning to `O=c1c2ccccc2c(=O)c2c1ccc1[nH]c3c(ccc4c(=O)c5ccccc5c(=O)c43)[nH]c12`, the outcome is “inactive; negative”.

`CCOCCOC(=O)C=Cc1ccc(OC)cc1`: the outcome was “inactive; negative”.

Regarding `Cc1ccc(C(C)(C)C)cc1`, the outcome was “inactive; negative”.

As for `CCCC=C(C=O)CC`, the outcome was “inactive; negative”.

Regarding `CCC(C)(C)c1ccc(O)cc1`, the outcome was “inactive; negative”.

On to `O=[N+]([O-])CCO`, for which the outcome was “active; positive”.

Consider `O=C(O)CO`, for which the outcome is “inactive; negative”.

Turning to `OCCN(CCO)CCO`, the outcome was “inactive; negative”.

Regarding `N#CC(Cl)(Cl)Cl`, the outcome was “active; weakly positive”.

Consider `O=C/C=C/c1ccccc1`, for which the outcome was “active; weakly positive”.

As to `O=c1c(O)c(-c2ccc(O)c(O)c2)oc2cc(O)cc(O)c12`, the outcome is “active; positive”.

In the case of `CC1CNCC(C)O1` (stereo unspecified), the outcome was “active; positive”.

For the compound `COP(=O)(OC)O/C(=C\Cl)c1cc(Cl)c(Cl)cc1Cl`, the outcome was “inactive; negative”.

`CCCCC(=O)N(C)C`: the outcome is “inactive; negative”.

`O=C(Cl)c1ccccc1F`: the outcome was “active; positive”.

For `Cc1ccc(C(C)(C)O)cc1`, the outcome is “inactive; negative”.

Turning to `CCCCC(CC)COC(=O)CCCCCCCCC(=O)OCC(CC)CCCC` (stereo unspecified), the outcome was “inactive; negative”.

The record behind these values is PubChem BioAssay AID2202554 (NIEHS Division of Translational Toxicology (DTT)).
